Laboratory results from patent US20090270495A1, “Inhibitors of Phosphodiesterase Types 1 To 5 Based on Dioclein, Floranol, and Analogs Thereof” (priority 2005, published 2009).
“And” between values parts separate entries of the source, which are not always exact repeats. Equal entries are not always repeated. “Also recorded” adds a separate entry of the source. Where two headings read alike, the source gives them in different places.

Columns and labels:
PDE5 [1] = biological target: PDE5 (Homo sapiens, UniProt O76074); conditions: cited from earlier work
PDE1 [2] = conditions: cited from earlier work
human saphenous vein = assay: Vasodilating effect on human saphenous vein pre-contracted with phenylephrine; conditions: for IC50: phenylephrine 3×10^−6M
Method: FIG. 2 represent the vasodilating effect of dioclein in the human saphenous vein, pre-contracted with phenylephrine (3×10^−6M) in the presence or absence of functional endothelium. The relaxation data represent the percentage of reduction of the contraction by phenylephrine in response to dioclein and have been expressed on average±SEM. *P<0.05 (two-way ANOVA with post-test comparison BONFERRONI. The vessels of 8 patients with and 8 without functional endothelium were analyzed.
The data represent the percentage of reduction of the contraction by phenylephrine in response to dioclein and have been expressed average±SEM. *P<0.05. ***P<0.001 (two-way ANOVA with post-test comparison BONFERRONI). One has analyzed 8 vessels of the control group, 5 vessels of the group incubated with H-89.
FIG. 4 illustrates the effect of Rp-8-pCPT cGMPS (10 μM) on the relaxation induced by dioclein on the human saphenous vein without functional endothelium, pre-contracted with phenylephrine (3×10^−6M). The data represent the percentage of reduction of the contraction with phenylephrine in response to dioclein and have been expressed in average±SEM. ***P<0.001 (two-way ANOVA with post-test comparison of BONFERRONI). One has analyzed 8 vessels of the control group and 5 vessels of the group incubated with Rp-8-pCPT cGMPS.
The data represent the percentage of reduction of the contraction with phenylephrine in response to dioclein and have been expressed in average±SEM. One has analyzed 8 vessels of the dioclein group, 7 vessels of the 8-MM-IBMX group and 9 vessels of the vinpocetine group.
FIG. 2 illustrates the effect of the flavonoids of the present invention on the human saphenous vein. […] FIG. 3 illustrates the effect of dioclein on the human saphenous vein without functional endothelium, in the absence and in the presence of an inhibitor selective of protein Kinase A, which is the intracellular receptor of AMPc.

PDE5 [3] = biological target: T1, PDE5 (Bos taurus, UniProt Q28156); assay: PDE5 inhibition, enzyme isolated from smooth muscle of ox aorta; assay type: biochemical
T1 construct: isolated from the smooth muscle of ox aorta; from tissue; host or cells: smooth muscle of ox aorta

Solubility = assay type: physicochemical
PDE2 = biological target: T2, PDE2 (Homo sapiens, UniProt O00408); assay: PDE2 inhibition, enzyme isolated from human platelets; assay type: biochemical
T2 construct: on the PDE2 isolated from human platelets; from tissue; host or cells: human platelets

PDE4 = PDE4 inhibition, enzyme isolated from smooth muscle of ox aorta; assay type: biochemical
[4] = tested on: arterial pressure of mice; assay: Hypotensor effect on arterial pressure of mice; assay type: in vivo; conditions: dissolved with DMSO
Method: FIG. 7 is a representative example of the effect of dioclein (2.5 mg/kg) and of the inclusion product of dioclein in cyclodextrin (inclusion: 2.5 mg/kg), applied by intraperitoneal route, on the arterial pressure of mice. In the highlight we can see the average±SEM of the maximum effect achieved on 6 different mice. In these experiments dioclein and the inclusion product of dioclein in the cyclodextrin were dissolved with the aid of DMSO.
FIG. 8 is a representative example of the effect of dioclein (10 mg/kg) and of the inclusion product of dioclein in cyclodextrin (inclusion: 10 mg/kg), applied by oral route, on the arterial pressure of mice. In the highlight one can see the average±SEM of maximum effect achieve in 3 different mice. In this experiments dioclein and the inclusion product of dioclein in cyclodextrin were dissolved with the aid of DMSO.
FIG. 9 is a representative example of the effect of the inclusion product of dioclein in cyclodextrin (inclusion; 10 mg/kg), solubilized in water, applied by oral route, on the arterial pressure of mice.
FIG. 7 illustrates the effect of dioclein and of dioclein included in cyclodextrin, dissolved with the aid of DMSO on the arterial pressure of mice. […] FIG. 8 illustrates the effect of dioclein and of dioclein included in cyclodextrin dissolved with the aid of DMSO on the arterial pressure of mice when applied by oral route (gavage). […]

PDE1 [5] = assay: PDE1 inhibition, enzyme isolated from smooth muscle of ox aorta; assay type: biochemical; conditions: PDE1 versus PDE2-PDE5
PDE1 [6] = tested on: T3, PDE1; assay: as above; assay type: biochemical
T3 construct: IC50 PDE1 − calmodulin; other: without calmodulin; Ki PDE1 − calmodulin; other: with calmodulin; Ki PDE1 + calmodulin; other: versus literature value of 8-MM-IBMX; times more pot

PDE3 = biological target: T4, PDE3 (Bos taurus, UniProt A0A3Q1M1E8); assay: PDE3 inhibition, enzyme isolated from smooth muscle of ox aorta; assay type: biochemical
T4 sequence (A0A3Q1M1E8 1-1126): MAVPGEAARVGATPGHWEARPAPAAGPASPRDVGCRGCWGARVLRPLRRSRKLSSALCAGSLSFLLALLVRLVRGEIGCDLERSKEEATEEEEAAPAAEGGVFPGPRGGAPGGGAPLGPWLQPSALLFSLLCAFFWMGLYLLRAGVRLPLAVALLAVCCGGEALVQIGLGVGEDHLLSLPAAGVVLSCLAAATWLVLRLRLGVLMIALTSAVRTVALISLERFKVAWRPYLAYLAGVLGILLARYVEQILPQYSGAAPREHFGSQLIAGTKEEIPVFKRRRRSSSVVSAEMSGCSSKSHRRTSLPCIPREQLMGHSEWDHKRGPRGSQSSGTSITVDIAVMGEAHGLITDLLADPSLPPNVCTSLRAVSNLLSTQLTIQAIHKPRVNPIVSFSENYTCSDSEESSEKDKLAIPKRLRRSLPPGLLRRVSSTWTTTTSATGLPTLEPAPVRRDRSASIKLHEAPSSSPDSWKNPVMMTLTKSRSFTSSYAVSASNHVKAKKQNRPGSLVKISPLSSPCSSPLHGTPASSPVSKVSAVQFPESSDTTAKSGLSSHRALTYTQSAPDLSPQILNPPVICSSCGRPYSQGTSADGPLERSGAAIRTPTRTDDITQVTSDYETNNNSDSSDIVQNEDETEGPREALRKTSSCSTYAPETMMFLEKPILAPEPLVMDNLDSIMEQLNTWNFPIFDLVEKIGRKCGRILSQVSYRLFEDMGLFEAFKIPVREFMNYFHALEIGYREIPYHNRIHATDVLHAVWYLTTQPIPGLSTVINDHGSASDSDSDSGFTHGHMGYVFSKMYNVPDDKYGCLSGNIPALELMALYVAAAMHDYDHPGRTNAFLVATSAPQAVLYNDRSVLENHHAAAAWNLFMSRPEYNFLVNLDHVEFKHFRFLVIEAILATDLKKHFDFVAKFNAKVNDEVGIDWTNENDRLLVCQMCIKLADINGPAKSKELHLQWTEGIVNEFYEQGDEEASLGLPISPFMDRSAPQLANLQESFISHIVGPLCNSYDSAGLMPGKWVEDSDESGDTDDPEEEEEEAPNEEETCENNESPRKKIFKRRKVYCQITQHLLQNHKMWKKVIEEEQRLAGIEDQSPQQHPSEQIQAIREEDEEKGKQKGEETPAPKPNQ

PDE1 of bovine tissue = conditions: cited from earlier work
[7] = biological target: potassium channels of the type sensitive to high-conductance calcium (Homo sapiens, UniProt Q12791); conditions: cited from earlier work
PDE7 = PDE7 (Homo sapiens, UniProt Q9NP56); conditions: at the same concentrations (higher than 30 μM); cited from earlier work
[8] = without functional endothelium, read-out: Cl50 of vasodilating effect, absence of functional endothelium
[9] = activated, +GMPc, read-out: IC50 Activated PDE2 (+GMPc)
[10] = basal, read-out: IC50 Basal PDE2
[11] = without calmodulin, read-out: IC50 PDE1 − calmodulin

T2 sequence (O00408 whole entry): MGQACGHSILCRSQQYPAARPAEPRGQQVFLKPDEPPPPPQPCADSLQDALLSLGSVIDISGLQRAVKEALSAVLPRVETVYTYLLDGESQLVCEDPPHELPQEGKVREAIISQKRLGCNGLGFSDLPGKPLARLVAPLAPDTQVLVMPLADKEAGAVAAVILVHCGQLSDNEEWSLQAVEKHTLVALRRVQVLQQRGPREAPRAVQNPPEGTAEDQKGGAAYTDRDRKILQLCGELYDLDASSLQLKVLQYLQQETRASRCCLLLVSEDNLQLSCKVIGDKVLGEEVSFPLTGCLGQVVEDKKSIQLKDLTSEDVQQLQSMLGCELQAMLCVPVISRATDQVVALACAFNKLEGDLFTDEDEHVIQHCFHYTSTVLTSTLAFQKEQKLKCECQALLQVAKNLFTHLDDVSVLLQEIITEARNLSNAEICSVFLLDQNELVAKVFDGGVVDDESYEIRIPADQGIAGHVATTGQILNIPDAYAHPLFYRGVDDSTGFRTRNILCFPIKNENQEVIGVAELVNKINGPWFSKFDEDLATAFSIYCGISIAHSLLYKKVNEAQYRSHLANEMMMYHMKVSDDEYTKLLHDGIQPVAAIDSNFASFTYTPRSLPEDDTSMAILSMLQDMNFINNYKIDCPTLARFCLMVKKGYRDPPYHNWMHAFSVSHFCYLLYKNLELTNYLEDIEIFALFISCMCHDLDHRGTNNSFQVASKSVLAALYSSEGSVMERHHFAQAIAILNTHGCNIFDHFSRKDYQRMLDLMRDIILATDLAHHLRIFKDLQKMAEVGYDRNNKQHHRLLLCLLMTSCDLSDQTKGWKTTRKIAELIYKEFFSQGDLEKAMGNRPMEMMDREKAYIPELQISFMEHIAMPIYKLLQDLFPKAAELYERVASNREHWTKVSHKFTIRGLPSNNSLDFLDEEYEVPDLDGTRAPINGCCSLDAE
Sequence of PDE7 (Q9NP56 whole entry): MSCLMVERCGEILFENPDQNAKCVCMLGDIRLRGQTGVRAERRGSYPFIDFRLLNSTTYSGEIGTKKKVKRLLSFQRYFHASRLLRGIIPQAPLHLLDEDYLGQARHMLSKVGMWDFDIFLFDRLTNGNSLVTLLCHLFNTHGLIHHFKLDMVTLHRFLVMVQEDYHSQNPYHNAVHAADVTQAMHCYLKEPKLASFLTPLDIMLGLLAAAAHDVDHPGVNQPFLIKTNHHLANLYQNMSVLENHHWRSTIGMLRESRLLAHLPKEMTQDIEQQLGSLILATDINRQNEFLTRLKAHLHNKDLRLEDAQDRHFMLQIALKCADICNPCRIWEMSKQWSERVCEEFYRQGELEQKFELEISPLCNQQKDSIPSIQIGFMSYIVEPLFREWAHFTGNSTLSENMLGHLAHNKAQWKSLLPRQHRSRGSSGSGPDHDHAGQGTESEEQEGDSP
Sequence of potassium channels of the type sensitive to high-conductance calcium (Q12791 whole entry): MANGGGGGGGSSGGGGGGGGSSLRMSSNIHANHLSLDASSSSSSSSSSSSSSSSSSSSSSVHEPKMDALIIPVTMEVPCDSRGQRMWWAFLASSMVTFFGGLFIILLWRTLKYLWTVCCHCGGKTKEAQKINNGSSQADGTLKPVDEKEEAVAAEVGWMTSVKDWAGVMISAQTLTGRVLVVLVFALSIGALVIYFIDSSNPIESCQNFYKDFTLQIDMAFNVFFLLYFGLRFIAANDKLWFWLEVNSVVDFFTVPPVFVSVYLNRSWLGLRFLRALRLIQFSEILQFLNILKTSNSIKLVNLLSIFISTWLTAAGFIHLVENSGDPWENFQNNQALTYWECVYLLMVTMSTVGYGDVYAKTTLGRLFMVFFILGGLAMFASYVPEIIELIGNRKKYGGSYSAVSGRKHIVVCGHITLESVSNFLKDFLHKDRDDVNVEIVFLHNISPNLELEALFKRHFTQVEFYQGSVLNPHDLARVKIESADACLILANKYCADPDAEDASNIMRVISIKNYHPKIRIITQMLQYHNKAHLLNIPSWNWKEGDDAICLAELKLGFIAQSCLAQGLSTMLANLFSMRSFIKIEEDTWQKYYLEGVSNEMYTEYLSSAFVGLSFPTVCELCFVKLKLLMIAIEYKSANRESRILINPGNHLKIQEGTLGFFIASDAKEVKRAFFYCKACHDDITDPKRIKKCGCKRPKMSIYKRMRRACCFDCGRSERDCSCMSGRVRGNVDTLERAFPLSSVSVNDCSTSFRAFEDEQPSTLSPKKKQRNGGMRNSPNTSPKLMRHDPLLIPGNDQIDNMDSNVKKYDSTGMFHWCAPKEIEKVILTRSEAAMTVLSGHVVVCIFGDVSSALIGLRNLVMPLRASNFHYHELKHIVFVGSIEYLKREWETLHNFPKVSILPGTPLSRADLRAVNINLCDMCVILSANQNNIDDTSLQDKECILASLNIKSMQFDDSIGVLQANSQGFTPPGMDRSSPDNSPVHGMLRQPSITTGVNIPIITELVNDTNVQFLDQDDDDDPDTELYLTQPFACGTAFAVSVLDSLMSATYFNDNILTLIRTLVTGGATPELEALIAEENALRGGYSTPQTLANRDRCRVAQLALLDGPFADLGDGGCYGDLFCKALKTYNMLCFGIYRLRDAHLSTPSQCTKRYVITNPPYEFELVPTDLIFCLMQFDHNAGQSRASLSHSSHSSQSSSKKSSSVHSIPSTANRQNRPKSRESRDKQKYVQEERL

For COCc1nc2c([nH]1)c(=O)n(C)c(=O)n2CC(C)C [8-MM-IBMX, 8-methoxymethyl-IBMX], the IC50 (PDE5 [1]) is listed as 10 µM, the IC50 (PDE1 [2]) is listed as 8 µM and the IC50 (human saphenous vein; [8]) is listed as 30.9 ± 16 µM.
In the case of COc1cc2c(c(O)c1OC)C(=O)CC(c1cc(O)ccc1O)O2 (stereo not shown) [Dioclein, 5, 2′,5′-trihydroxy-6,7-dimethoxyflavanone], the IC50 (PDE5 [3]) is reported as 23 ± 5.5 µM, the “solubility in DMSO and methanol” value (Solubility; DMSO, methanol) is reported as “soluble in DMSO and methanol” and the solubility in water (Solubility; water) is reported as “insolubility in water; also recorded: low solubility in water; also recorded: very low solubility in water”. It also gave an IC50 (PDE2; [9]) of 38.2 ± 8.92 µM, an IC50 (PDE2; [10]) of 100 ± 0.5 µM and an IC50 (PDE4) of 16.8 ± 1.42 µM. For the same compound, the IC50 (human saphenous vein; Homo sapiens, with functional endothelium, read-out: Cl50 of vasodilating effect, presence of functional endothelium) was 3 ± 0.2 µM, the IC50 (human saphenous vein; Homo sapiens, without functional endothelium, read-out: Cl50 of vasodilating effect, absence of functional endothelium) was 11 ± 0.4 µM and the “vasodilating effect in the presence of H-89 (protein kinase A inhibitor)” value (human saphenous vein; without functional endothelium, H-89 1 μM) was “displaced to the right”. For the same compound, the IC50 (human saphenous vein; [8]) was 11.1 ± 2.7 µM, the “effect on arterial pressure, intraperitoneal route” value ([4]; 2.5 mg/kg i.p.) was “reduced the arterial pressure of mice” and the “effect on arterial pressure, oral route (gavage), DMSO” value ([4]; 10 mg/kg oral) was “not active via oral route”. The “selectivity: PDE1 inhibited at concentrations times smaller than for PDE2, PDE3, PDE4 and PDE5” value (PDE1 [5]) was 20 to 100 times and 20-100 times, the IC50 (PDE1 [6]; calmodulin state not stated in text, listed as dioclein, read-out: IC50 of inhibitory effect on PDE1 (running text)) was 1.44 ± 0.35 µM and the IC50 (PDE1 [6]; calmodulin state not stated in text, read-out: IC50 of inhibitory effect on PDE1 (running text)) was 1.4 µM. For the same compound, the “times more potent than 8-MM-IBMX (PDE1)” value (PDE1 [6]; versus literature value of 8-MM-IBMX) was 8 times, the “times more potent than vinpocetine (PDE1)” value (PDE1 [6]; versus literature value of vinpocetine) was “about 30 times” and the Ki (PDE1 [6]; with calmodulin) was 0.59 µM. The Ki (PDE1 [6]; without calmodulin) was 0.62 µM and the IC50 (PDE1 [6]; [11]) was 2.47 ± 0.26 µM.
COc1c(O)c(CC=C(C)C)c2c(c1O)C(=O)[C@H](O)[C@@H](c1ccccc1O)O2 [Floranol] gave an IC50 (PDE5 [3]) of 7.14 µM, an IC50 (PDE2; [9]) of 65.3 ± 6.87 µM and an IC50 (PDE2; [10]) of 26.8 ± 4.62 µM. For the same compound, the IC50 (PDE3) was 47.1 ± 5.25 µM, the IC50 (PDE4) was 11 ± 2.31 µM and the IC50 (PDE1 [6]; with calmodulin, read-out: IC50 PDE1 + calmodulin) was 3.06 ± 0.14 µM. It also gave an IC50 (PDE1 [6]; [11]) of 2.75 ± 0.2 µM.
For CCOC(=O)C1=C[C@]2(CC)CCCN3CCc4c(n1c1ccccc41)[C@@H]32 [Vinpocetine], the “concentrations showing inhibitory effect on PDE1” value (PDE1 of bovine tissue) is listed as “higher than 30 μM”, the maximum vasodilating effect (human saphenous vein; without functional endothelium) is listed as 30% and the “direct activation of potassium channels” value [7] is listed as “capable of directly activating potassium channels”. For the same compound, the PDE7 inhibition (PDE7) was “inhibits PDE7”.
